# Measurements as given in patent publication US12186303B2, “Feed additive for cattle comprising n-acetyl-l-tryptophan as active ingredient” (CJ CHEILJEDANG CORPORATION, priority 2018, dated 2025).
# Entries after “also recorded” stand apart in the source; their conditions may differ.
# Assays:
# Format in all cases: in vivo, Korean native cattle
# [1] = tested on: genes related to muscle metabolism (MYF6, MyoD, and Desmin) and fat metabolism (PPARr, CEBPa, and FABP4) of the loin tissue; test: Real-time PCR of gene expression related to loin tissue development under cold stress conditions
# Excerpt: (§1) After grouping the animals by statistical analysis of initial body weights, the animals were bred in 1.0×1.5 m^2 individual pens during the experiment period. The feed was offered based on an amount of dry matter of daily total mixed ration (TMR) per head. After 7 days of an adaptation period for N-acetyl-L-tryptophan (NALT), a mixture of 0.1% N-acetyl-L-tryptophan (NALT) and the total mixed ration was fed to individual animals every morning at 8 a.m. for 6 weeks, and water was available ad libitum. Total amounts of L-tryptophan ingested by the control and NALT-treated group by feeding NALT were 7.37 g/day/head and 16.26 g/day/head, respectively. The experiment was performed such that the NALT-treated group ingested 8.89 g/day/head more L-tryptophan than that of the control. Meanwhile, results of growth performance analysis (body weight and average feed intake) and genetic analysis of loin tissue were obtained by statistically comparing and analyzing significant differences between the control and the NALT-treated group, and results of hematological analysis were obtained via statistical comparison and analysis depending on NALT treatment, experiment period (days), and interaction (treatment×days). These numerical values were expressed as average values, and a significance test was performed at the 5% level using Student's t-test by using the JMP 5.0 software package (SAS Institute Inc., Cary, NC, USA). Samples of loin tissue of the sentinel animals were obtained at the final day of the experiment (day 48) using a biopsy gun for large animals (TNT Research Co., Ltd., Gyeonggi-do, Republic of Korea), added to a 2 mL tube, and incubated in liquid nitrogen gas. After extracting RNA from each tissue sample, real-time PCR was conducted to analyze expression levels of genes related to muscle metabolism (MYF6, MyoD, and Desmin) and fat metabolism (PPARr, CEBPa, and FABP4) of the loin tissue of each animal.
# [2] = tested on: Korean native steers; test: Hematological analysis (VetScan HM2) under cold stress conditions; design: MON / GRA / RBC / HGB / HCT / MCH / WBC / LYM: unit not given here; details: for GRA / HCT / HGB / LYM / MCH / MON / PLT / RBC / WBC: 0.1% NALT
# Excerpt: After grouping the animals by statistical analysis of initial body weights, the animals were bred in 1.0×1.5 m^2 individual pens during the experiment period. The feed was offered based on an amount of dry matter of daily total mixed ration (TMR) per head. After 7 days of an adaptation period for N-acetyl-L-tryptophan (NALT), a mixture of 0.1% N-acetyl-L-tryptophan (NALT) and the total mixed ration was fed to individual animals every morning at 8 a.m. for 6 weeks, and water was available ad libitum. Total amounts of L-tryptophan ingested by the control and NALT-treated group by feeding NALT were 7.37 g/day/head and 16.26 g/day/head, respectively. The experiment was performed such that the NALT-treated group ingested 8.89 g/day/head more L-tryptophan than that of the control.
# Meanwhile, results of growth performance analysis (body weight and average feed intake) and genetic analysis of loin tissue were obtained by statistically comparing and analyzing significant differences between the control and the NALT-treated group, and results of hematological analysis were obtained via statistical comparison and analysis depending on NALT treatment, experiment period (days), and interaction (treatment×days). These numerical values were expressed as average values, and a significance test was performed at the 5% level using Student's t-test by using the JMP 5.0 software package (SAS Institute Inc., Cary, NC, USA).
# Blood was collected from a jugular vein of each sentinel animal before offering the feed at the starting day of the experiment (week 0), the mid-point of the experiment (week 4), and the final day of the experiment (week 7) and added to a vacutainer (Becton Dickinson, Franklin Lakes, NJ, USA). Hematological analysis was conducted using a VetScan HM2 Hematology System (Abaxis, Union City, CA, USA).
# [3] = tested on: Korean native steers; test: Feed intake according to NALT feeding under cold stress conditions; details: for Feed intake: 0.1% NALT
# Excerpt: as §1, with “Feed intake” for “Samples of loin tissue of the sentinel animals were obtained at the final day of the experiment (day 48) using a biopsy gun for large animals (TNT Research Co., Ltd., Gyeonggi-do, Republic of Korea), added to a 2 mL tube, and incubated in liquid nitrogen gas. After extracting RNA from each tissue sample, real-time PCR was conducted to analyze expression levels of genes related to muscle metabolism (MYF6, MyoD, and Desmin) and fat metabolism (PPARr, CEBPa, and FABP4) of the loin tissue”, “sentinel animal was calculated by measuring a total amount of feed offered and an amount left over every day.” for “animal.”
# [4] = 0.1% NALT, day 48, control = 1.000
structure (smiles),measurement,setting,value
"CC(=O)N[C@@H](Cc1c[nH]c2ccccc12)C(=O)O [NALT, N-acetyl-L-tryptophan]","Expression of genes (MYF6, MyoD, and Desmin) related to muscle metabolism of loin tissue compared with the control",[1],did not show a statistically significant difference; also recorded: No statistically significant difference
same,"Expression of genes (PPARr, CEBPa, and FABP4) related to fat metabolism of loin tissue compared with the control",[1],lower
same,CEBPa expression level in loin tissue,[1]; [4],0.293
same,Desmin expression level in loin tissue,[1]; [4],0.871
same,FABP4 expression level in loin tissue,[1]; [4],0.233
same,MYF6 expression level in loin tissue,[1]; [4],0.834
same,MyoD expression level in loin tissue,[1]; [4],0.857
same,PPARr expression level in loin tissue,[1]; [4],0.274
same,"All hematological indicators except for monocytes, compared with the control",[2],No statistically significant difference
same,Hematological indicator values relative to normal ranges,[2],within normal ranges
same,GRA,[2]; 0 wks,3.01
same,HCT,[2]; 0 wks,35.00
same,HGB,[2]; 0 wks,13.60
same,LYM,[2]; 0 wks,5.55
same,MCH,[2]; 0 wks,12.83
same,MON,[2]; 0 wks,0.10
same,PLT,[2]; 0 wks,378.0
same,RBC,[2]; 0 wks,10.70
same,WBC,[2]; 0 wks,8.66
same,GRA,[2]; 4 wks,2.09
same,HCT,[2]; 4 wks,34.64
same,HGB,[2]; 4 wks,14.20
same,LYM,[2]; 4 wks,6.55
same,MCH,[2]; 4 wks,13.80
same,MON,[2]; 4 wks,0.06
same,PLT,[2]; 4 wks,476.8
same,RBC,[2]; 4 wks,10.34
same,WBC,[2]; 4 wks,8.70
same,GRA,[2]; 7 wks,3.29
same,HCT,[2]; 7 wks,33.88
same,HGB,[2]; 7 wks,13.68
same,LYM,[2]; 7 wks,5.98
same,MCH,[2]; 7 wks,13.70
same,MON,[2]; 7 wks,0.08
same,PLT,[2]; 7 wks,379.5
same,RBC,[2]; 7 wks,10.08
same,WBC,[2]; 7 wks,9.34
same,Feed intake,[3]; Days 0-6 (adaptation period),8.56 kg
same,Feed intake,[3]; Days 7-13,9.21 kg
same,Feed intake,[3]; Days 7-48 (entire experiment period),9.86 kg
same,Feed intake,[3]; Days 14-20,9.56 kg
same,Feed intake,[3]; Days 21-27,9.68 kg
same,Feed intake,[3]; Days 28-34,10.22 kg
same,Feed intake,[3]; Days 35-41,10.02 kg
same,Feed intake,[3]; Days 42-48,10.56 kg
same,Feed intake compared with the control,[3]; adaptation period (days 0-6),No statistically significant difference
same,Feed intake compared with the control,[3]; days 7-41,no statistically significant difference
same,Increase in average feed intake per head compared to the control,[3]; days 7-48,about 4.6%
same,Increase in feed intake compared to the control,[3]; days 42-48,about 1.02 kg
same,Average feed intake per head,[3]; entire experiment period (days 7-48),9.86 kg/day/head
